Consider eight compounds from patent publication US20130178523A1, “ANTI-CANCER COMPOSITIONS AND METHODS” (THE PENN STATE RESEARCH FOUNDATION, priority 2007, published 2013).

In data set [1] the test system is 1205 Lu melanoma cells. Briefly: MTS cell viability assay, 1205 Lu. The following applies: Homo sapiens, 24 h.
In another data set the test system is Caco-2. Briefly: MTS assay, colon cancer cells. The following applies: Homo sapiens, Caco-2, 24 h. For orientation: Formazan colour is commonly taken as a measure of viable cells.
Data set [2] has as its system UACC 903 melanoma cells. Briefly: Tumor development in nude mice, subcutaneous UACC 903, i.p. treatment. The following applies: for melanoma tumor volume: 0.76 μmoles (3 ppm selenium) i.p. thrice per week, day 24, doses 3× lower than isothiocyanates; for tumor burden: UACC 903.
A further data set has as its system HT-1080. Briefly: MTS assay, fibrosarcoma cells. The following applies: Homo sapiens, HT-1080, 24 h.
The subject of another data set is T-98-G. Kind of data set: MTS assay, glioblastoma cells. The following applies: Homo sapiens, T98G, 24 h.
The subject of another data set is PC-3. Kind of data set: MTS assay, prostate cancer cells. The following applies: Homo sapiens, PC-3, 24 h.
The subject of the next data set is MDA-MB-231. Kind of data set: MTS assay, breast cancer cells. The following applies: Homo sapiens, MDA-MB-231, 24 h.
The test system of another data set is WM115 melanoma cells. Briefly: MTS cell viability assay, WM115. The following applies: Homo sapiens, WM-115, 24 h.
For data set [3], the system named is UACC 903 melanoma cells. Kind of data set: MTS cell viability assay, UACC 903. The following applies: Homo sapiens, UACC-903, 24 h.
Data set [4] deals with UACC 903 cells. Kind of data set: BrdU ELISA cellular proliferation. It counts as cell-based, human. The following applies: 24 hours; for proliferative potential with increasing concentrations: 5, 10, 15 μM. Here is the method:
Proliferation rate is measured using a BrdU ELISA kit (Roche Applied Sciences, Indianapolis, Ind.).
BrdUrd is used to label cells for 4-6 hours. At 15 μM concentration, ISC-4 and ISC-6 reduced UACC 903 cellular proliferative potential by ˜80-90% compared to controls. Results represent the average of 3 independent experiments; bars represent SEM. The average value is represented as the percentage of control DMSO treated cells.
(Uptake of a labelled nucleoside into DNA is a usual measure of proliferation.)

The next data set has as its system Akt signaling pathway. Kind of data set: Western blot of Akt signaling pathway in cultured melanoma cells (FIG. 9). The following applies: 24 hours. On the technique in general: Immunoblotting shows a protein as a band on a membrane.
Data set [5] has as its system UACC 903 cells. Kind of data set: Cell cycle analysis (propidium iodide, FACScan). The following applies: 24 hours.
Data set [6] has as its system UACC 903 cells. Briefly: Apo-ONE caspase-3/7 apoptosis assay. It counts as cell-based, human. The following applies: 24 hours; for cellular apoptosis with increasing concentrations (caspase-3/7 activity, words): 5, 10, 15 μM. Here is the method: Apoptosis rates are measured using an Apo-ONE Homogenous caspase-3/7 Assay kit (Promega Corporation, Madison, Wis.).
The isoselenocyanate compounds promote apoptosis in melanoma cells. […] The graphs in FIGS. 3A and 3B show fold increase in caspase-3/7 activity relative to DMSO vehicle treated cells on the x-axis. Results represent average of 3 independent experiments. Bars indicate SEM.

The subject of data set [7] is 1205 Lu melanoma cells. Kind of data set: Tumor development in nude mice, subcutaneous 1205 Lu, i.p. treatment. It counts as in vivo. The following applies: 0.76 μmoles i.p. thrice per week. An excerpt: (Monday, Wednesday and Friday).
The nature of data set [8]: Toxicity assessments in nude mice (blood parameters, histology). It counts as in vivo. The text has this:
Animals are sacrificed by CO2 asphyxiation and blood collected from each animal in plasma separator tubes with lithium heparin (BD Microtainer, BD, Franklin Lakes, N.J.) following cardiac puncture and analyzed for AST (aspartate aminotransferase), ALT, (alanyl aminotransferase), alkaline phosphatase, glucose and creatinine to ascertain liver, heart, kidney and pancreas related toxicity. For morphological examination of blood cells, whole blood is collected in microtainer tubes containing K2EDTA (BD Microtainer, BD, Franklin Lakes, N.J.) and RBC, WBC, lymphocytes, monocytes, eosinophils, platelets, total hemoglobin and hematocrit percentage analyzed. Blood is also microscopically examined for segregates, polychromatin bodies, and smudge cells. A portion of liver, heart, kidney, spleen, intestine pancreas and adrenal from each animal is formalin fixed and paraffin-embedded to examine toxicity-related changes in cell or organ morphology by H&E staining.

Setting [9] is: 0.76 μmoles i.p. thrice per week.

A word on the IC50: it is the midpoint of a concentration-inhibition curve. Low values mean greater potency, high ones weaker potency. Take `S=C=NCc1ccccc1` [BITC, Benzyl isothiocyanate, reference compound]: the IC50 in the data set with 1205 Lu melanoma cells [1] was over 25 µM; in the data set with Caco-2, 15 ± 2 µM; in the data set on HT-1080, over 50 µM; in the data set with T-98-G, over 100 µM; with PC-3, over 50 µM; in the data set with MDA-MB-231, 42 ± 3 µM. Moreover, the IC50 in the data set with WM115 melanoma cells was 13 µM; with UACC 903 melanoma cells [3] it was 15 µM. In the data set with UACC 903 melanoma cells [2] (2.5 micromoles i.p. thrice per week, FIG. 18C), the “effect on tumor size” value is reported as “most effective”.
Turning to `[Se]=C=NCc1ccccc1` [ISC-1, Benzyl Isoselenocyanate], the IC50 with 1205 Lu melanoma cells [1] was over 25 µM; in the data set with Caco-2 it was 13 ± 3 µM; in the data set on HT-1080, 13 ± 3 µM; with T-98-G, 43 ± 4 µM; in the data set with PC-3, 24 ± 1 µM; with MDA-MB-231, 29 ± 2 µM. Moreover, the concentration for half-maximal inhibition (IC50) in the data set on WM115 melanoma cells is over 25 µM; in the data set on UACC 903 melanoma cells [3] it was 16 µM. Moreover, in the data set on UACC 903 melanoma cells [2] (0.76 μmoles i.p. thrice per week, Example 30), the “effect on tumor size” value is on record as “failed to show any effect”.
Regarding `[Se]=C=NCCc1ccccc1` [ISC-2, Phenylethyl Isoselenocyanate], the 50% inhibitory concentration (IC50) with 1205 Lu melanoma cells [1] is 18 µM; in the data set on Caco-2, 11 ± 1 µM; in the data set with HT-1080 it was 12 ± 3 µM; in the data set on T-98-G, 24 ± 1 µM; in the data set on PC-3, 16 ± 1 µM; in the data set with MDA-MB-231, 20 ± 3 µM. In addition, the IC50 with WM115 melanoma cells stood at 8 µM; in the data set with UACC 903 melanoma cells [3], 12 µM. Moreover, the “melanoma tumor volume” value in the data set on UACC 903 melanoma cells [2] was “reduce tumor volume”.
On to `[Se]=C=NCCCCCCc1ccccc1` [ISC-6, Phenylhexyl Isoselenocyanate], for which the “proliferative potential with increasing concentrations” value with UACC 903 cells [4] is given as “decreased proliferative potential”. For the same compound, the “fold more effective than PBITC or PHITC at inhibiting cellular proliferation” value in the data set on UACC 903 cells [4] (5-15 μM) is about 2 fold. Moreover, the IC50 turned out to be 7 µM with 1205 Lu melanoma cells [1]; 10 ± 1 µM in the data set on Caco-2; 12 ± 1 µM in the data set on HT-1080; 23 ± 2 µM with T-98-G; 14 ± 1 µM with PC-3; 22 ± 2 µM in the data set with MDA-MB-231. Further, the IC50 in the data set with WM115 melanoma cells is 7 µM; in the data set with UACC 903 melanoma cells [3] it was 10 ± 1 µM. Besides, in the data set on Akt signaling pathway, the “concentration completely inhibiting the Akt3 pathway (Western blot)” value worked out at 10 µM. The “melanoma tumor volume” value in the data set on UACC 903 melanoma cells [2] is given as “reduce tumor volume”. Besides, the results for the G0/G1 cell population in the data set on UACC 903 cells [5] (5 μM), in the data set on UACC 903 cells [5] (10 μM) and with UACC 903 cells [5] (15 μM) were 56.8, 44.9 and 41.6, respectively. Further, the G2/M cell population in the data set on UACC 903 cells [5] (5 μM) is listed as 13.5; in the data set on UACC 903 cells [5] (10 μM), 24.5; in the data set with UACC 903 cells [5] (15 μM), 26.1. The S cell population in the data set on UACC 903 cells [5] (5 μM) is given as 31.5; with UACC 903 cells [5] (10 μM) it was 30.5; in the data set with UACC 903 cells [5] (15 μM) it was 32.2. Also, the figures for the subG0/G1 cell population in the data set on UACC 903 cells [5] (5 μM), in the data set on UACC 903 cells [5] (10 μM) and in the data set on UACC 903 cells [5] (15 μM) were 1.5, 7.6 and 15.9, respectively. Besides, the “cellular apoptosis with increasing concentrations (caspase-3/7 activity, words)” value in the data set with UACC 903 cells [6] is recorded as “increase cellular apoptosis”. Further, the “fold more effective than PBITC at inducing apoptosis” value with UACC 903 cells [6] (caspase-3/7 activity, 5-15 μM) is given as about 2 fold.
In the case of `S=C=NCCCCc1ccccc1` [PBITC, phenylbutylisothiocyanate, reference compound], the “proliferative potential with increasing concentrations” value in the data set with UACC 903 cells [4] is listed as “decreased proliferative potential”. In addition, the IC50 is 19 ± 5 µM in the data set with 1205 Lu melanoma cells [1]; 27 ± 2 µM in the data set on Caco-2; 15 ± 1 µM in the data set on HT-1080; 35 ± 1 µM in the data set with T-98-G; 24 ± 2 µM in the data set on PC-3; 27 ± 2 µM in the data set on MDA-MB-231. Also, the half-maximal inhibitory concentration (IC50) in the data set with WM115 melanoma cells was 7 ± 1 µM; in the data set with UACC 903 melanoma cells [3], 15 ± 1 µM. For the same compound, the “tumor burden” value in the data set with UACC 903 melanoma cells [2] (setting [9]) and in the data set on 1205 Lu melanoma cells [7] was “ineffective at reducing tumor burden” in each case. Moreover, the “blood SGOT, SGPT, alkaline phosphatase, glucose and creatinine” value in data set [8] (0.76 μmoles i.p. 3 times per week for 3 weeks, compared to vehicle DMSO) is “did not alter parameters”. Further, the “basal urea nitrogen (BUN), creatinine and glucose levels” value in data set [8] (treated versus control animals) was “not significantly different”. The G0/G1 cell population in the data set with UACC 903 cells [5] (5 μM) is on record as 37.4; in the data set on UACC 903 cells [5] (10 μM) it was 37.2; in the data set with UACC 903 cells [5] (15 μM) it was 42.1. For the same compound, the G2/M cell population worked out at 34.7 in the data set with UACC 903 cells [5] (5 μM), 31.9 in the data set with UACC 903 cells [5] (10 μM) and 27.4 in the data set on UACC 903 cells [5] (15 μM). Besides, the S cell population in the data set on UACC 903 cells [5] (5 μM) stood at 27.8; in the data set on UACC 903 cells [5] (10 μM) it was 30.9; with UACC 903 cells [5] (15 μM) it was 30.5. The subG0/G1 cell population with UACC 903 cells [5] (5 μM) was 4.9; with UACC 903 cells [5] (10 μM), 10.4; in the data set with UACC 903 cells [5] (15 μM) it was 20.8. For the same compound, the “cellular apoptosis with increasing concentrations (caspase-3/7 activity, words)” value with UACC 903 cells [6] is “increase cellular apoptosis”.
Consider `S=C=NCCc1ccccc1` [PEITC, phenylethyl isothiocyanate, reference compound], for which the concentration for half-maximal inhibition (IC50) was 24 ± 2 µM with 1205 Lu melanoma cells [1]; 14 ± 2 µM in the data set with Caco-2; 15 ± 1 µM with HT-1080; over 100 µM in the data set with T-98-G; 24 ± 2 µM in the data set on PC-3; 38 ± 6 µM with MDA-MB-231. In addition, the half-inhibitory concentration (IC50) in the data set on WM115 melanoma cells and with UACC 903 melanoma cells [3] was 12 ± 1 µM throughout.
`S=C=NCCCCCCc1ccccc1` [PHITC, Phenylhexylisothiocyanate]: the “proliferative potential with increasing concentrations” value with UACC 903 cells [4] is “decreased proliferative potential”. Besides, the half-maximal inhibitory concentration (IC50) in the data set on 1205 Lu melanoma cells [1] was 11 ± 4 µM; with Caco-2, 49 ± 9 µM; with HT-1080, 29 ± 3 µM; in the data set with T-98-G it was 26 ± 2 µM; in the data set with PC-3 it was 17 ± 1 µM; in the data set on MDA-MB-231, 24 ± 2 µM. For the same compound, the concentration for half-maximal inhibition (IC50) in the data set on WM115 melanoma cells amounted to 8 ± 1 µM; with UACC 903 melanoma cells [3], 15 ± 2 µM. For the same compound, the “tumor burden” value with UACC 903 melanoma cells [2] (setting [9]) and in the data set on 1205 Lu melanoma cells [7] was “ineffective at reducing tumor burden” in each case. The figures for the G0/G1 cell population in the data set with UACC 903 cells [5] (5 μM), in the data set with UACC 903 cells [5] (10 μM) and with UACC 903 cells [5] (15 μM) were 58.7, 43.8 and 40.7, respectively. The G2/M cell population in the data set with UACC 903 cells [5] (5 μM) was 13.1; with UACC 903 cells [5] (10 μM), 27.5; in the data set on UACC 903 cells [5] (15 μM) it was 29.7. Also, the figures for the S cell population in the data set on UACC 903 cells [5] (5 μM), in the data set with UACC 903 cells [5] (10 μM) and in the data set on UACC 903 cells [5] (15 μM) were 28.2, 28.7 and 29.6, respectively. Also, the subG0/G1 cell population with UACC 903 cells [5] (5 μM) worked out at 1.4; with UACC 903 cells [5] (10 μM), 5.4; in the data set with UACC 903 cells [5] (15 μM) it was 12.5. In addition, in the data set with UACC 903 cells [6], the “cellular apoptosis with increasing concentrations (caspase-3/7 activity, words)” value is given as “increase cellular apoptosis”.
In the case of `N#C[Se]CCCCCCc1ccccc1` [PHSC, Phenylhexyl selenocyanate], in the data set with UACC 903 cells [5] (15 μM), the G0/G1 cell population is on record as 61.4, the G2/M cell population is recorded as 11.5, the S cell population came out at 26.9 and the subG0/G1 cell population is given as 2.4.
